Source: US20240000786A1, “COMPOSITION FOR ENHANCING INTRA-CELLULAR NITRIC OXIDE GENERATION” (INSTITUTE OF LIFE SCIENCES, priority 2020, published 2024)

T1: iNOS-NOSIP protein interaction (Homo sapiens, UniProt Q9Y314)
T1 construct: made in house; host or cells: E. coli BL21 (DE3)
T1 sequence (Q9Y314 with tags, fused parts or gaps): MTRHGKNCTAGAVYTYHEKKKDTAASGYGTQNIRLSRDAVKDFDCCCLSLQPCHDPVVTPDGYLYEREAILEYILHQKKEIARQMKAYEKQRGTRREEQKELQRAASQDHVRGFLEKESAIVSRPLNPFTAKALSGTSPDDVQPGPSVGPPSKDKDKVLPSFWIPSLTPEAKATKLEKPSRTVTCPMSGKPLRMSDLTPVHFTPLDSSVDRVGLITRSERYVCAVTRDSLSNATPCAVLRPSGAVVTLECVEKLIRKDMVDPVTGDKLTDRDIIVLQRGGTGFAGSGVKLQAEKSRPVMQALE

T2: rNOSIP (Homo sapiens, UniProt Q9Y314)
T2 construct: made in house; host or cells: E. coli BL21 (DE3)
T2 sequence (Q9Y314 with tags, fused parts or gaps): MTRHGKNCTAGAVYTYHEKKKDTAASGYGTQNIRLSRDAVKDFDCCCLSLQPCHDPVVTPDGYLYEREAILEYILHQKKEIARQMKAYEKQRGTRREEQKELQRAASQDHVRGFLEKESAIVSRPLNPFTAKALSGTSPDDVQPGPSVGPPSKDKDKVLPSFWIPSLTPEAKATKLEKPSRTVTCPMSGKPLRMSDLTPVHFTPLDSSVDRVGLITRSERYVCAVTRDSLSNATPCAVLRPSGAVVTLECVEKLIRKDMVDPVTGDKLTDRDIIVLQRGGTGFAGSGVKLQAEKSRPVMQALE


Assays:
[1] = target: T1, iNOS-NOSIP protein interaction; assay: SPR: inhibition of rNOSIP association with immobilized recombinant iNOS by iNOS peptides / small molecules; type: binding; settings: for inhibition hierarchy of iNOS-NOSIP protein interaction: SPR, rank order; for Kd: Kd/Ka; for inhibition of binding of NOSIP with iNOS ligand by small molecules: rNOSIP 250 nM, small molecules 1 uM, SPR (FIG. 4)
Protocol: Four different iNOS peptides were synthesized commercially by China peptides and iNOS peptides were used for molecular interaction studies with immobilized recombinant iNOS purified protein. The iNOS peptides mediated inhibition of rNOSIP and riNOS protein association in Bio-Rad XPR 36 surface plasmon resonance biosensor instrument. […] 250 nM of iNOS peptides was used for inhibition assay with immobilized ligand(recombinant iNOS) in SPR analysis. Similar condition and concentration of small molecules were used for inhibition of recombinant protein association with immobilized ligand. […] The rNOSIP protein was incubated with iNOS derived peptide/small molecules for 30 minutes in ice for inhibition assay before the SPR application in our study. The molecular interaction was carried out at 20° C. and kinetic parameters were determined, after fitting the association and dissociation curves to a 1:1 (Langmuir)-binding model. An activated channel without immobilized ligand was used to evaluate nonspecific binding. The response curves were also recorded on control surfaces. Results were calculated after subtraction of the control values using the ProteOn Manager software.
The collected sensorgram data were processed by reference subtraction using double-referencing with the in-line blank buffer. The integrated ProteOn Manager software was used to fit the data with the Langmuir model describing a 1:1 binding stoichiometry. Ka is the association rate constant, Kd is the dissociation rate constant, and KD is the equilibrium dissociation constant, defined by the Kd/Ka ratio for the analytes-ligand binding.
The five small molecules bind with NOSIP and inhibit the association of recombinant NOSIP and recombinant iNOS. The rNOSIP protein was incubated with iNOS derived peptide or small molecules for 30 minutes in ice prior to SPR application. The molecular interaction was carried out at 20° C. and kinetic parameters were determined, after fitting the association and dissociation curves to a 1:1 (Langmuir)-binding model. An activated channel without immobilized ligand (recombinant iNOS) was used to evaluate nonspecific binding. The response curves were also recorded on control surfaces. Results were calculated after subtraction of the control values using the ProteOn Manager software.
The collected sensorgram data were processed by reference subtraction using double-referencing with the in-line blank buffer. The integrated ProteOn
Manager software was used to fit the data with the Langmuir model describing a 1:1 binding stoichiometry. Ka is the association rate constant, Kd is the dissociation rate constant, and KD is the equilibrium dissociation constant, defined by the Kd/Ka ratio for the analytes—ligand binding.

rNOSIP = target: T2, rNOSIP; assay: Isothermal titration calorimetry (ITC) of rNOSIP with small molecules / 18 mer iNOS peptide (PP2); type: binding; settings: for ΔG / ΔH / −TΔS / Kd / N (Sites): ITC 25° C.; for Kd / N (Sites): small molecule/peptide in cell, NOSIP in syringe; for Fold Change (KD): ITC KD relative to iNOS-Peptide2 = 1; for SM binding affinity with NOSIP, hierarchy: ITC, rank order
Protocol: The 18 mer iNOS peptide (PP2) and small molecules were used for physical association of molecules in calorimetric analysis. The molecular association leads to thermodynamics changes such as Gibb's free energy change (ΔG), entropy change (ΔS), enthalpy change (ΔH) and number of binding sites (N) in interacting solution were investigated by isothermal calorimetry MICROCAL PEQ (Malvern) at 25° C. […] The experiment consisted of multiple injections and each injection contained 1.5 μl of binding solution (recombinant NOSIP solution) with 120 second spacing time between subsequent injections. Sequential titrations were carried out and the sample solution was continuously stirred at 270 rpm by the rotating paddle attached to the syringe needle. Multiple injections of NOSIP made into the sample cell containing interacting solution of peptide and small molecules. The titration curves were analyzed using the analysis software provided with the calorimeter.
The 18 mer iNOS peptide (PP2) and five small molecules were used to analyze physical association in calorimetric analysis. The molecular association leads to thermodynamics changes such as Gibb's free energy change (ΔG), entropy change (ΔS), enthalpy change (ΔH) and number of binding sites (N) in interacting solution were investigated by isothermal calorimetry MICROCAL PEQ (Malvern) at 25° C. […] The experiment consisted of multiple injections and each injection contained 1.5 μl of binding solution with 120 second spacing time between subsequent injections. Sequential titrations were carried out and the sample solution was continuously stirred at 270 rpm by the rotating paddle attached to the syringe needle. Multiple injections of NOSIP made into the sample cell containing interacting solution of peptide and small molecules. The titration curves were analyzed using the analysis software provided with the calorimeter.

human PBMCs = assay: NO levels (Griess) in human PBMCs, small molecules alone or in combination; type: cell-based; settings: 0.1 and 0.01 μM, 24 h
Protocol: PBMCs (1 million cells/ml) from healthy individuals' blood was isolated and were treated with or without NOSIP antagonists (either alone or mixture of equimolar concentration of all 5 small molecule antagonists at 0.1 and 0.01 μM) for 30 min in triplicate wells and incubated for 24 h at 37° C. The culture supernatants were analysed by […] for nitrite concentration using Griess reagent, and the NO levels are shown as mean percent increase over untreated control. The panel on the right top of FIG. 10 depict nitrite levels by individual small molecules in human PBMCs. […] Thus a combined mixture of 5 small molecules will be desirable for use in mouse as well as humans.

Mouse BMDMs = assay: Nitric oxide production by individual small molecules in mouse BMDM; type: cell-based
recombinant iNOS = target: T3, recombinant iNOS (Homo sapiens, UniProt P35228); assay: iNOS enzyme activity in presence of recombinant NOSIP, Griess reaction; type: biochemical; settings: iNOS 0.5 μM, NOSIP 0.5 to 5 μM, substrate L-Arginine
T3 construct: made in house; host or cells: E. coli BL21 (DE3)
Protocol: The human iNOS oxygenase domain (SEQ ID No.: 24) containing 424 nucleotide sequence and NOSIP gene (SEQ ID No.: 23) containing 301 nucleotide sequences were synthesized by GenScript and cloned in pET22b expression vector. The recombinant pET22b: iNOS and pET22b: NOSIP plasmid was used to transform competent E. coli BL21 (DE3) cells. The proteins were over expressed using 0.2 mM IPTG at 25° C. The harvested cells were resuspended and sonicated in 20 mM Tris-HCl, pH 7.5, 200 mM NaCl, 0.05% Triton X-100 and protease inhibitor (Sigma). The expressed proteins were purified by nickel nitrilotriacetic acid column using 250 mM imidazole and gel filtration chromatography. The protein was quantified by Bradford assay (Sigma) and integrity of purified protein was checked on 12% SDS-PAGE.
In a […] assay increasing concentrations of recombinant NOSIP were mixed with recombinant iNOS along with substrate L-Arginine and the resultant product, […] was quantified by using Griess reaction kit. […] Statistical significance was assessed by one way ANOVA, Tukey& #39;s Multiple Comparison Test.

[2] = analyte rNOSIP alone or + peptide/small molecule, ligand r iNOS, 20° C.
[3] = analyte rNOSIP alone or + peptide/small molecule, ligand r iNOS, 20° C., 1:1 Langmuir

T3 sequence (P35228 with tags, fused parts or gaps limits assumed): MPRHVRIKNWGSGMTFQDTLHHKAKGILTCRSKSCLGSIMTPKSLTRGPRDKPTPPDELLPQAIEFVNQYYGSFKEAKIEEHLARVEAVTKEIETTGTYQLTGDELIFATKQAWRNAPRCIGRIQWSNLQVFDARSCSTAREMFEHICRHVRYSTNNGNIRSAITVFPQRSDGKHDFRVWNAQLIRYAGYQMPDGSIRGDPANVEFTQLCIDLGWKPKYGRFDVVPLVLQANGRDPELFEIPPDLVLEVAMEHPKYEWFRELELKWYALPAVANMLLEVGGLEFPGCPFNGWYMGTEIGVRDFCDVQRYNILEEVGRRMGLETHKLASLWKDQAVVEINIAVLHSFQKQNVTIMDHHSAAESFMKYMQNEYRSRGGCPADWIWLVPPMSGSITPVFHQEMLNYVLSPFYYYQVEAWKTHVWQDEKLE

Molecule | inhibition hierarchy of iNOS-NOSIP protein interaction [1] | kon ([1]; analyte rNOSIP alone or + peptide/small molecule, ligand r iNOS, 20° C., 1:1 Langmuir, read-out: Ka) | Kd [1, 2] | inhibition of binding of NOSIP with iNOS ligand by small molecules [1] | ΔG (rNOSIP) | ΔH (rNOSIP) | −TΔS (rNOSIP) | Kd (rNOSIP) | N (Sites) (rNOSIP) | Fold Change (KD) (rNOSIP) | SM binding affinity with NOSIP, hierarchy (rNOSIP) | nitric oxide produced, individual small molecules compared (human PBMCs) | Ka(1/Ms) [1, 3] | nitric oxide produced, individual small molecules compared (Mouse BMDMs) | inhibition of iNOS enzyme activity (Griess) (recombinant iNOS)
COc1cc(C)ccc1OCc1nc(C(=O)NCc2n[nH]c3c2CCC3)co1 [MCULE-4640800528, N-({1H,4H,5H,6H-cyclopenta[c]pyrazol-3-yl}methyl)-2[(2-methoxy-4-methylphenoxy)methyl]-1,3-oxazole-4-carboxamide] | CC4>CC11>CC6>CC5>CC13>iNOS Peptide 2 | 0.563 M⁻¹ s⁻¹ | 870000 nM | inhibit the binding of NOSIP with iNOS ligand | -8.70 kcal/mol | -8.54 ± 0.255 kcal/mol | -0.159 kcal/mol | 420 ± 57.5 nM | 1.04 | 0.766 | CC4>CC11>CC6>CC5>CC13>Peptide 2 (iNOS) | more effective than molecules in human cells |  |  | 
CCN(c1ccccc1)S(=O)(=O)c1ccc(Cl)c(NC(=O)COC(=O)c2ccccc2SCC(=O)Nc2ccc3c(c2)OCO3)c1 [MCULE-8094061955, ({2-chloro-5-[ethyl(phenyl)sulfamoyl]phenyl}carbamoyl)methyl 2-({[(2H-1,3-benzodioxol-5-yl)carbamoyl]methyl}sulfanyl) benzoate] | CC4>CC11>CC6>CC5>CC13>iNOS Peptide 2 |  | 809000 nM | inhibit the binding of NOSIP with iNOS ligand | -8.61 kcal/mol | -9.07 ± 0.251 kcal/mol | 0.459 kcal/mol | 493 ± 63.2 nM | 0.993 | 0.899 | CC4>CC11>CC6>CC5>CC13>Peptide 2 (iNOS) |  | 6.7e^−01 1/Ms | more effective with mouse cells | 
NOSIP: recombinant Nitric oxide synthase interacting protein expressed in E. coli BL21 (DE3) (protein, UniProt Q9Y314 1-301, looked up) Nitric oxide …: MTRHGKNCTAGAVYTYHEKKKDTAASGYGTQNIRLSRDAVKDFDCCCLSLQPCHDPVVTPDGYLYEREAILEYILHQKKEIARQMKAYEKQRGTRREEQKELQRAASQDHVRGFLEKESAIVSRPLNPFTAKALSGTSPDDVQPGPSVGPPSKDKDKVLPSFWIPSLTPEAKATKLEKPSRTVTCPMSGKPLRMSDLTPVHFTPLDSSVDRVGLITRSERYVCAVTRDSLSNATPCAVLRPSGAVVTLECVEKLIRKDMVDPVTGDKLTDRDIIVLQRGGTGFAGSGVKLQAEKSRPVMQA |  |  | 7.11 nM |  |  |  |  |  |  |  |  |  | 9.57e^+04 1/Ms |  | inhibits enzyme activity of iNOS
